Results: PubChem BioAssay (NCI)
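Values below derive from 48-hour exposures of cells grown in 96-well plates, with endpoints linearly interpolated between the two concentrations bracketing the appropriate inhibition level. GI50 = concentration required for 50% inhibition of growth. Definition used: TGI = concentration required for complete inhibition of growth.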

Assays:
Test in all cases: DTP human tumour cell line panel, 48 h
[1] = tested on: NCI-H460 lung
[2] = tested on: COLO 205 colon
[3] = tested on: HL-60(TB) leukemia
[4] = tested on: SK-OV-3 ovarian
[5] = tested on: UO-31 renal
[6] = tested on: CCRF-CEM leukemia
[7] = tested on: NCI-H226 lung
[8] = tested on: MALME-3M melanoma
[9] = tested on: SNB-19 CNS
[10] = tested on: A498 renal
[11] = tested on: UACC-257 melanoma
[12] = tested on: NCI-H23 lung
[13] = tested on: HOP-62 NSCLC
[14] = tested on: SR leukemia
[15] = tested on: LOX IMVI melanoma
[16] = tested on: RPMI-8226 leukemia
[17] = tested on: SK-MEL-2 melanoma
[18] = tested on: OVCAR-8 ovarian
[19] = tested on: NCI/ADR-RES ovarian
[20] = tested on: HCC-2998 colon
[21] = tested on: SF-268 CNS
[22] = tested on: MDA-MB-231 breast
[23] = tested on: ACHN renal
[24] = tested on: MCF7 breast
[25] = tested on: NCI-H522 lung
[26] = tested on: A549 NSCLC
[27] = tested on: SK-MEL-5 melanoma
[28] = tested on: SW-620 colon
[29] = tested on: RXF 393 renal
[30] = tested on: MOLT-4 leukemia
[31] = tested on: M14 melanoma
[32] = tested on: 786-0 renal
[33] = tested on: SK-MEL-28 melanoma
[34] = tested on: K-562 leukemia
[35] = tested on: HCT-15 colon
[36] = tested on: OVCAR-4 ovarian
[37] = tested on: PC-3 prostate
[38] = tested on: SN12C renal
[39] = tested on: IGROV1 ovarian
[40] = tested on: OVCAR-5 ovarian
[41] = tested on: KM12 colon
[42] = tested on: SNB-75 CNS
[43] = tested on: HT29 colon
[44] = tested on: SF-295 CNS
[45] = tested on: EKVX NSCLC
[46] = tested on: HS 578T breast
[47] = tested on: DU-145 prostate
[48] = tested on: MDA-MB-435
[49] = tested on: T-47D breast
[50] = tested on: CAKI-1 renal
[51] = tested on: UACC-62 melanoma
[52] = tested on: U251 CNS
[53] = tested on: HCT-116 colon
[54] = tested on: SF-539 CNS
[55] = tested on: BT-549 breast
[56] = tested on: HOP-92 NSCLC
[57] = tested on: TK-10 renal
[58] = tested on: OVCAR-3 ovarian

With O=C(NNc1nc(-c2ccccc2)cs1)C(F)(F)F the TGI [1] was > 100 µM, the TGI [2] was > 100 µM and the TGI [3] was > 100 µM. The TGI [4] was > 100 µM, the TGI [5] was 31.6 µM and the TGI [6] was > 100 µM. For the same compound, the TGI [7] was > 100 µM, the TGI [8] was > 100 µM and the TGI [9] was > 100 µM. The TGI [10] was 88.2 µM, the TGI [11] was > 100 µM and the TGI [12] was > 100 µM. For the same compound, the TGI [13] was > 100 µM, the TGI [14] was > 100 µM and the TGI [15] was > 100 µM. The TGI [16] was 47 µM, the TGI [17] was > 100 µM and the TGI [18] was > 100 µM. The TGI [19] was > 100 µM, the TGI [20] was > 100 µM and the TGI [21] was > 100 µM. The TGI [22] was > 100 µM, the TGI [23] was > 100 µM and the TGI [24] was > 100 µM. For the same compound, the TGI [25] was > 100 µM, the TGI [26] was > 100 µM and the TGI [27] was > 100 µM. For the same compound, the TGI [28] was > 100 µM, the TGI [29] was > 100 µM and the TGI [30] was > 100 µM. For the same compound, the TGI [31] was > 100 µM, the TGI [32] was > 100 µM and the TGI [33] was 88.8 µM. For the same compound, the TGI [34] was 93.5 µM, the TGI [35] was > 100 µM and the TGI [36] was > 100 µM. For the same compound, the TGI [37] was > 100 µM, the TGI [38] was > 100 µM and the TGI [39] was > 100 µM. For the same compound, the TGI [40] was > 100 µM, the TGI [41] was > 100 µM and the TGI [42] was 91 µM. For the same compound, the TGI [43] was > 100 µM, the TGI [44] was > 100 µM and the TGI [45] was > 100 µM. For the same compound, the TGI [46] was 52.2 µM, the TGI [47] was > 100 µM and the TGI [48] was > 100 µM. The TGI [49] was > 100 µM, the TGI [50] was > 100 µM and the TGI [51] was > 100 µM. For the same compound, the TGI [52] was 98.7 µM and the TGI [53] was > 100 µM.
For Cn1c(-c2c(N)n(CCCN3CCOCC3)c3nc(C#N)c(C#N)nc23)nc2ccccc21, the GI50 [1] was > 42.5 µM, the TGI [1] was > 64.3 µM and the GI50 [2] was > 42.8 µM. For the same compound, the TGI [2] was > 61.7 µM, the GI50 [3] was 0.704 µM and the TGI [3] was 2.08 µM. The GI50 [4] was 51.7 µM, the TGI [4] was > 100 µM and the GI50 [5] was 6.36 µM. For the same compound, the TGI [5] was 55.6 µM, the GI50 [6] was 2.69 µM and the TGI [6] was > 28.9 µM. The GI50 [7] was 27.8 µM, the TGI [7] was > 52.9 µM and the GI50 [8] was 31.9 µM. The TGI [8] was > 83.7 µM, the GI50 [9] was 23.8 µM and the TGI [9] was > 100 µM. It also gave a GI50 [10] of 39.4 µM, a TGI [10] of 92.5 µM and a GI50 [11] of 25.7 µM. The TGI [11] was > 100 µM, the GI50 [12] was 27 µM and the TGI [12] was > 81.9 µM. For the same compound, the GI50 [13] was 20.6 µM, the TGI [13] was 77.6 µM and the GI50 [14] was 2.66 µM. For the same compound, the TGI [14] was > 26.6 µM, the GI50 [15] was 11.3 µM and the TGI [15] was > 52.5 µM. For the same compound, the GI50 [16] was 0.909 µM, the TGI [16] was > 52.7 µM and the GI50 [17] was 45.3 µM. The TGI [17] was > 100 µM, the GI50 [54] was 1.85 µM and the TGI [54] was 7 µM. For the same compound, the GI50 [18] was 4.99 µM, the TGI [18] was > 100 µM and the GI50 [55] was 16.1 µM. For the same compound, the TGI [55] was > 64.5 µM, the GI50 [19] was > 28.3 µM and the TGI [19] was > 100 µM. For the same compound, the GI50 [20] was 20.1 µM, the TGI [20] was 40 µM and the GI50 [21] was 7.16 µM. For the same compound, the TGI [21] was 62.2 µM, the GI50 [22] was 7.87 µM and the TGI [22] was > 53.1 µM. The GI50 [23] was 41.7 µM, the TGI [23] was > 100 µM and the GI50 [24] was 1.48 µM. For the same compound, the TGI [24] was > 43.8 µM, the GI50 [56] was 2.73 µM and the TGI [56] was 49.8 µM. The GI50 [25] was 26.8 µM, the TGI [25] was > 100 µM and the GI50 [26] was 22.5 µM. For the same compound, the TGI [26] was 46.3 µM, the TGI [27] was > 44.9 µM and the GI50 [28] was 1.74 µM. The TGI [28] was > 45 µM, the GI50 [29] was 16.4 µM and the TGI [29] was 45 µM. The GI50 [30] was 6.73 µM, the TGI [30] was > 67.6 µM and the GI50 [31] was > 100 µM. For the same compound, the TGI [31] was > 100 µM, the GI50 [32] was 24.7 µM and the TGI [32] was > 69 µM. The GI50 [33] was 3.03 µM, the TGI [33] was 11.8 µM and the TGI [34] was > 74.7 µM. The TGI [35] was > 53.4 µM, the GI50 [36] was 17.9 µM and the TGI [36] was > 100 µM. For the same compound, the GI50 [37] was 3.82 µM, the TGI [37] was > 100 µM and the GI50 [38] was 8.85 µM. For the same compound, the TGI [38] was > 80.2 µM, the GI50 [39] was > 100 µM and the TGI [39] was > 100 µM. For the same compound, the GI50 [40] was > 77.7 µM, the TGI [40] was > 100 µM and the GI50 [41] was 12.4 µM. It also gave a TGI [41] of 31.4 µM, a GI50 [42] of 4.34 µM and a TGI [42] of 25 µM. The GI50 [57] was 32.7 µM, the TGI [57] was 97.3 µM and the GI50 [58] was 1.8 µM. The TGI [58] was 13.4 µM, the TGI [43] was > 72.4 µM and the GI50 [44] was 19.6 µM. For the same compound, the TGI [44] was > 58.1 µM, the GI50 [45] was > 57 µM and the TGI [45] was > 100 µM. The GI50 [47] was 3.68 µM, the TGI [47] was 29.2 µM and the GI50 [48] was > 100 µM. The TGI [48] was > 100 µM, the GI50 [49] was 26.2 µM and the TGI [49] was > 69.5 µM. The GI50 [50] was 7.52 µM, the TGI [50] was > 49.6 µM and the GI50 [51] was > 34.5 µM. The TGI [51] was > 100 µM, the GI50 [52] was 9.7 µM and the TGI [52] was > 63.8 µM. For the same compound, the GI50 [53] was 4.03 µM and the TGI [53] was > 33.4 µM.
Compound Cc1nc2ccccc2c(/C=C/c2ccc(Cl)cc2)c1C(=O)/C=C/c1ccc(Cl)cc1 has a GI50 [1] of 1.41 µM, a TGI [1] of 3.15 µM and a GI50 [3] of 1.46 µM. It also gave a TGI [3] of 4.37 µM, a GI50 [5] of 1.06 µM and a TGI [5] of 2.25 µM. The GI50 [6] was 0.605 µM, the TGI [6] was > 100 µM and the GI50 [7] was 1.59 µM. It also gave a TGI [7] of 3.29 µM, a GI50 [9] of 1.57 µM and a TGI [9] of 2.94 µM. For the same compound, the GI50 [14] was 0.609 µM, the TGI [14] was > 100 µM and the GI50 [15] was 1.22 µM. It also gave a TGI [15] of 2.55 µM, a GI50 [16] of 1.2 µM and a TGI [16] of 6.34 µM. It also gave a GI50 [54] of 1.71 µM, a TGI [54] of 3.14 µM and a GI50 [19] of 2.12 µM. It also gave a TGI [19] of 6.15 µM, a GI50 [20] of 1.53 µM and a TGI [20] of 3 µM. It also gave a GI50 [25] of 1.25 µM, a TGI [25] of 4.77 µM and a GI50 [27] of 1.62 µM. For the same compound, the TGI [27] was 3 µM, the GI50 [29] was 1.52 µM and the TGI [29] was 3 µM. The GI50 [30] was 0.788 µM, the TGI [30] was > 100 µM and the GI50 [33] was 1.67 µM. The TGI [33] was 3.12 µM, the GI50 [34] was 1.28 µM and the TGI [34] was > 100 µM. It also gave a GI50 [35] of 0.787 µM, a TGI [35] of 3.13 µM and a GI50 [43] of 0.739 µM. For the same compound, the TGI [43] was > 100 µM, the GI50 [46] was 2.06 µM and the TGI [46] was 5.97 µM. It also gave a GI50 [51] of 1.59 µM, a TGI [51] of 3.27 µM and a GI50 [52] of 1.39 µM. It also gave a TGI [52] of 3.03 µM.
